Patent US20150064234A1, “4-AMINOPYRIDINE AS A THERAPEUTIC AGENT FOR SPINAL MUSCULAR ATROPHY” (THE TRUSTEES OF COLUMBIA UNIVERSITY IN THE CITY OF NEW YORK, priority 2012, published 2015)
Entries after “also recorded” stand apart in the source; their conditions may differ.

Legend:
[1] = system: smn^x7/smn^x7 mutant larvae; assay: Larval locomotion assay, smn mutant larvae; format: in vivo, Drosophila
[2] = system: smn^x7/smn^x7 mutant larvae; assay: Spontaneous motor rhythm recording, smn mutant larvae; format: in vivo, Drosophila
[3] = system: smn^x7/smn^x7 mutant larvae; assay: NMJ electrophysiology (eEPSP), smn mutant larvae; format: in vivo, Drosophila
[4] = system: Canton S (CS) control larvae
[5] = system: Canton S (CS) control larvae; remark: listed apart in the source
[6] = system: Canton S (CS) control larvae; remark: listed apart in the source
Shaker channels = conditions: at concentration of 1 mM; cited from earlier work
[7] = system: other sodium, calcium, and potassium conductances; conditions: at concentration of 1 mM; cited from earlier work
[8] = system: canine hereditary motor neuron disease; conditions: canine hereditary motor neuron disease (Pinter et al., 1997); cited from earlier work
tetrodotoxin toxicity = conditions: in vivo; cited from earlier work
MS patients = conditions: cited from earlier work
wild-type larvae = assay: Titration of 4-AP in larval media for tolerability
[9] = system: Canton S (CS) control larvae; assay: Muscle area measurement, control larvae cultured on 4-AP
[10] = system: smn^x7/smn^x7 mutant larvae; assay: Muscle area measurement, smn mutant larvae cultured on 4-AP
Drosophila smn mutants = assay: Rescue of Drosophila smn mutant phenotypes by K+ channel antagonists; conditions: treatment with K+ channel antagonist; 4-(dimethylamino)pyridine data not shown
[11] = smn mutants, 2 mM 4-AP, compared with 4-AP treated controls
[12] = smn^x7/smn^x7 larvae treated with 2 mM 4-AP, ± SEM
[13] = CS control larvae treated with 2 mM 4-AP, ± SEM
[14] = control animals, 2 mM 4-AP, P<0.01

## Nc1ccncc1 [4-AP, 4-aminopyridine]
[1]; smn mutants grown on 2 mM 4-AP media, P<0.05
  increase of locomotion: 55%
[1]; [11]
  effect on locomotion: corrects; also recorded: significantly increased
[1]; [12]
  Locomotion: 2.65 ± 0.10 cm/min
[2]; smn mutants grown on 2 mM 4-AP media, p<0.001
  remaining increase in inter-spike interval above controls treated with 4-AP: 31%
[2]; smn mutants, 2 mM 4-AP
  effect on defects in motor rhythm: substantially improved; also recorded: substantially corrects; also recorded: fully corrected
[2]; [12]
  Inter-spike interval: 89.98 ± 4.98 ms
[3]; smn mutants treated with 2 mM 4-AP, P<0.001
  reduction of increased NMJ EPSP amplitude: 27%
[3]; [11]
  effect on NMJ neurotransmitter release / eEPSP amplitude: corrects; also recorded: fully corrected
[3]; [12]
  eEPSP amplitude: 32.40 ± 2.48 mV
[4]; [13]
  Locomotion: 3.06 ± 0.40 cm/min
[4]; [14]
  reduction of larval locomotion: 35%
[5]; [13]
  Inter-spike interval: 68.89 ± 4.23 ms
[5]; control animals, 2 mM 4-AP
  effect on motor rhythm: inhibits
[5]; [14]
  decrease of rhythmic motor activity: 40%
[6]; [13]
  eEPSP amplitude: 26.67 ± 2.91 mV
[6]; control animals, 2 mM 4-AP, P<0.001
  reduction of NMJ eEPSP amplitudes: 21%
Shaker channels
  inhibition of Shaker channels: selectively and reversibly inhibits
[7]
  effect on other sodium, calcium, and potassium conductances: without significant effect
[8]
  effect on muscle twitch tension: can improve
Tetrodotoxin toxicity
  effect on tetrodotoxin toxicity: reverse tetrodotoxin toxicity
MS patients; 17 temperature-sensitive MS patients, 7.5 to 52.5 mg in one to three daily doses, 1 to 5 days, thirteen of 17
  patients with clinically important motor and visual improvements: 76%
MS patients; 17 temperature-sensitive MS patients, 7.5 to 52.5 mg
  side effects: No serious side effects
MS patients; average 8.53-hour treatment-observation period
  mean duration of improvements for two consecutive doses: 7.07 h
MS patients; long-term study (32 months)
  initial responders with long-term benefits: 80-90%
MS patients; two consecutive doses, average 8.53-hour period
  duration of improvements as share of treatment-observation period: 83%
wild-type larvae; added to larval media, wild-type larvae
  maximum dosage tolerated without lethality: 2 mM
wild-type larvae; control animals, 2 mM throughout larval period
  toxicity at maximum tolerated dose: mild systemic toxicity
[9]; CS control larvae treated with 2 mM 4-AP throughout larval period, ± SEM
  Muscle 6 area: 38.08 ± 3.49 ×10^3 × μm^2
[9]; control / wild-type animals, 2 mM 4-AP
  effect on muscle size: no effect; also recorded: does not alter; also recorded: did not affect
[10]; smn mutants grown on 2 mM 4-AP media, P<0.001
  increase of muscle surface area compared to untreated smn mutants: 66%
[10]; smn mutants, 2 mM 4-AP
  effect on muscle size: increases; also recorded: significantly increased
[10]; smn^x7/smn^x7 larvae treated with 2 mM 4-AP throughout larval period, ± SEM
  Muscle 6 area: 29.60 ± 3.09 ×10^3 × μm^2
Drosophila smn mutants
  effect on Drosophila smn mutant phenotypes: positively benefitted; also recorded: rescued

## CN(C)c1ccncc1 [4-(dimethylamino) pyridine]
Drosophila smn mutants
  effect on Drosophila smn mutant phenotypes: rescued
